From ChEMBL document CHEMBL1201862, “PubChem BioAssay data set” (2004)
The source made the active and inactive calls.

Key:
[1] = Mycobacterium tuberculosis BioA enzyme inhibitor Measured in Biochemical System Using Plate Reader - 2163-02_Inhibitor_Dose_DryPowder_Activity.
cells = settings: HEK293
[2] = biological target: Disintegrin and metalloproteinase domain-containing protein 17 (Homo sapiens, UniProt P78536); assay: inhibition of ADAM17 substrate cleavage – biochemical, quenched FRET substrate, counter-screen for ADAM10 exosite inhibitor project, dose response (AID 743253)
[3] = biological target: 1-phosphatidylinositol 4,5-bisphosphate phosphodiesterase beta-3 (Homo sapiens, UniProt Q01970); assay: Fluorescence-based biochemical high throughput dose response assay to identify inhibitors of phospholipase C isozymes (PLC-B3).
[4] = potency of ADAM10 substrate cleavage blockers – biochemical, QFRET, dose response (AID 743254);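 note: ADAM10 enzyme with the DM2 quenched FRET peptide as substrate; EDANS fluorescence gain as the protease cuts the substrate; inhibitor potency against ADAM10 proteolytic activity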
[5] = biological target: 1-phosphatidylinositol 4,5-bisphosphate phosphodiesterase gamma-1 (Homo sapiens, UniProt P19174); assay: Counterscreen for inhibitors of phospholipase C isozymes (PLC-B3): Fluorescence-based biochemical high throughput dose response assay to identify inhibitors of phospholipase C isozymes (PLC-gamma1).
[6] = biological target: T1, Scavenger receptor class B member 1 (Mus musculus, UniProt Q61009); assay: mouse SR-BI DiI-HDL transfer blockers – ldlA[mSR-BI] CHO cells, fluorescence plate reader, dry powder, set 9, dose response (AID 623880); type: functional, cell-based
[7] = biological target: T1, Scavenger receptor class B member 1; assay: blockers of DiI-HDL lipid transfer via SR-BI – cell-based, ldlA[mSR-BI] CHO, DiI fluorescence, dry powder, set 10, dose response (AID 624029); type: functional
ORF 73 = biological target: T2, ORF 73 (Human herpesvirus 8, UniProt O40947); assay: KSHV LANA DNA-binding disruption – biochemical, fluorescence polarization, cherry-picked samples, dose response (AID 504725); set-up: species or system Human gammaherpesvirus 8;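 note: fluorescence polarization of a labeled DNA duplex reporting LANA DNA binding; potency is for inhibitors that block LANA binding to the DNA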
T2 sequence (O40947 whole entry): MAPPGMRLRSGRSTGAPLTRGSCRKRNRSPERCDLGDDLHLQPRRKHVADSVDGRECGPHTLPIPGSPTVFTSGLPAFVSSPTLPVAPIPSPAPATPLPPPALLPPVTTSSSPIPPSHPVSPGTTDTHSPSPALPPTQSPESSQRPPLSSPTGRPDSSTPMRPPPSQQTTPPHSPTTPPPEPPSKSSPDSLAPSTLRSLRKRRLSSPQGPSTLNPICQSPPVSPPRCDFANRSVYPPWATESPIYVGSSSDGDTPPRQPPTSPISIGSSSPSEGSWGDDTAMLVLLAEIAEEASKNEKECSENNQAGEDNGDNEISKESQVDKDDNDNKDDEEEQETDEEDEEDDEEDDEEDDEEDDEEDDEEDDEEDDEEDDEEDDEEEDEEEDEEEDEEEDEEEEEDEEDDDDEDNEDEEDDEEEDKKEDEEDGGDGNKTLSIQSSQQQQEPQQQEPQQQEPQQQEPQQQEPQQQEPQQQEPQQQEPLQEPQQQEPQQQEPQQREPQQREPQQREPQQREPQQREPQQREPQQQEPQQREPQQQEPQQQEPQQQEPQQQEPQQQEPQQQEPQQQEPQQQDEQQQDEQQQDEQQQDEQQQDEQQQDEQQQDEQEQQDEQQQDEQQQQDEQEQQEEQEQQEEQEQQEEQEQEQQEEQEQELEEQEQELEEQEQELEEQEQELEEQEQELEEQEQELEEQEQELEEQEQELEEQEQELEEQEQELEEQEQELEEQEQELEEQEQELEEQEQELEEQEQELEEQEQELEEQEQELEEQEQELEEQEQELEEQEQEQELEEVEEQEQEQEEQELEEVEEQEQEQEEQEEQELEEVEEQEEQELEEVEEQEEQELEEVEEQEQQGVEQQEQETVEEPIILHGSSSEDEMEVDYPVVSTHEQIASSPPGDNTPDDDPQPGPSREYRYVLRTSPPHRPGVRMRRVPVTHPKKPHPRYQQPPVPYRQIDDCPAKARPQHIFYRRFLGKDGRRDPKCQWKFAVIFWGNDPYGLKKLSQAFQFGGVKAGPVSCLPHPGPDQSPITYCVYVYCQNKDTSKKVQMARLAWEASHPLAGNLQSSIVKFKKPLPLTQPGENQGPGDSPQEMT

[8] = biological target: Matrix metalloproteinase-14 (Homo sapiens, UniProt P50281); assay: Dose Response confirmation of uHTS hits for a small molecule inhibitors of MT1-MMP activation in a fluorescence assay set 2.; type: functional
[9] = biological target: T3, Histone-lysine N-methyltransferase NSD2 (Homo sapiens, UniProt O96028); type: biochemical
T3 sequence (O96028 whole entry): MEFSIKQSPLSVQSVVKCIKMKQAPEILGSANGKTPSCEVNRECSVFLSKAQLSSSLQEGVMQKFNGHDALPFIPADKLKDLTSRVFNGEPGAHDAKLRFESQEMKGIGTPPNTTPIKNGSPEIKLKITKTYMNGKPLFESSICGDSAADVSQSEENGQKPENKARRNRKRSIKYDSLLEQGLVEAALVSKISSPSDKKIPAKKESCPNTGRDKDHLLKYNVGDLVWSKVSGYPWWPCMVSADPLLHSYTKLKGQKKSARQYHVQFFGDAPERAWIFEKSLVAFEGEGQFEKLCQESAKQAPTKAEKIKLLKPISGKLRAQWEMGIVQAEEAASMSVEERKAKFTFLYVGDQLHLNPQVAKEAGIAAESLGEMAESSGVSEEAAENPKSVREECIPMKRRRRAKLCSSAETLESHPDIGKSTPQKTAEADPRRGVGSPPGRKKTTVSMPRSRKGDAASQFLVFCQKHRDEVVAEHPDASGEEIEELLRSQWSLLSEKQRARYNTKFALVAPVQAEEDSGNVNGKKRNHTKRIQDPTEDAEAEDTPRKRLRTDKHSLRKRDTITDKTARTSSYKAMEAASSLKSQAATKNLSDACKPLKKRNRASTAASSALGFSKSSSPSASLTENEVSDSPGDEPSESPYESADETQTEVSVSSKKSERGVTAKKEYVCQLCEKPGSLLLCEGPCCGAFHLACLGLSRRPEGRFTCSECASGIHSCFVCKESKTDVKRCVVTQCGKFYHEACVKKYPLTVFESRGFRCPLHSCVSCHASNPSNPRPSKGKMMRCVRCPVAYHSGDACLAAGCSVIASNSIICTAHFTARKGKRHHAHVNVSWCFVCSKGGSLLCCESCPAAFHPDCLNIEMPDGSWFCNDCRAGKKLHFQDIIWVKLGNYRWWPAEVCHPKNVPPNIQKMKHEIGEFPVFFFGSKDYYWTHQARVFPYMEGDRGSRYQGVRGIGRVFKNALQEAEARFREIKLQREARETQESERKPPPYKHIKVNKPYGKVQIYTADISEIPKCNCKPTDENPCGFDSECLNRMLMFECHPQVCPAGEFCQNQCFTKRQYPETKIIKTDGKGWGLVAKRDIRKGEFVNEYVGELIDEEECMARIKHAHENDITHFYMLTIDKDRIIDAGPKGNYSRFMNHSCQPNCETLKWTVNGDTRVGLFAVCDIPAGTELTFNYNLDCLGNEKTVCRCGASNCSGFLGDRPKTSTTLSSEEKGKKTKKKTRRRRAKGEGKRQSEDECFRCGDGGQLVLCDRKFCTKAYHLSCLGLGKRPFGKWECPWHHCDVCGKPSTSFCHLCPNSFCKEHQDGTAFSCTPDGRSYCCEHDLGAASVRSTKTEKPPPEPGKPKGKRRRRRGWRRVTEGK

HeLa = assay: viability loss in HeLa cells – cell-based, 24 h, cherry-picked samples, cytotoxicity control, dose response (AID 504726); type: functional; settings: Homo sapiens;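 note: potency for cytotoxicity as loss of luminescence signal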
[10] = viability loss in HeLa cells – cytotoxicity control for MgcRacGAP inhibitor project, dose response (AID 624300); type: functional
Nonstructural protein 1 = Nonstructural protein 1 (Influenza A virus, UniProt Q194T2); type: functional, Influenza A virus (A/California/07/2009(H1N1))
[11] = biological target: T4, Rac GTPase-activating protein 1 (Homo sapiens, UniProt Q9H0H5); assay: blockers of MgcRacGAP-driven Rac1 GTP hydrolysis – biochemical, ADP Hunter fluorescence, primary and confirmatory, confirmation (AID 624330); type: functional
T4 sequence (Q9H0H5 whole entry): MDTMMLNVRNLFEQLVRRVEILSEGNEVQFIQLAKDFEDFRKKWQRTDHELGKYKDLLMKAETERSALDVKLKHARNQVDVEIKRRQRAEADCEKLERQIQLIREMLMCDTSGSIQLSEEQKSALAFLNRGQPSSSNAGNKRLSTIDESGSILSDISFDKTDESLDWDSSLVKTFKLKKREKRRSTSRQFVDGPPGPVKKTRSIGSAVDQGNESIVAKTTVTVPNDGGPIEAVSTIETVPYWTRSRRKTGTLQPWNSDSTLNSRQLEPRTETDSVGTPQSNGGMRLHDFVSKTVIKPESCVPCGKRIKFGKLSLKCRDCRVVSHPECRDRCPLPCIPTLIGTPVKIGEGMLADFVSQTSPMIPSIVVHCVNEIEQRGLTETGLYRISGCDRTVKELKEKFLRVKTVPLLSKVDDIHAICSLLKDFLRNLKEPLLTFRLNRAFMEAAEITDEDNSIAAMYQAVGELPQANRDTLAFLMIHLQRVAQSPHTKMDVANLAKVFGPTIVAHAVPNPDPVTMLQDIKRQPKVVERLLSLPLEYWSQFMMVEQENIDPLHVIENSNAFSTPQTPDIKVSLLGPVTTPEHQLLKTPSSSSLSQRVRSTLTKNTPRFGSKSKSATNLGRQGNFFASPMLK

Caspase-6 = biological target: T5, Caspase-6 (Homo sapiens, UniProt P55212); assay: inhibition of CASP6 peptide cleavage – biochemical, VEID-R110 fluorescence, cherry-pick, dose response (AID 720632)
T5 sequence (P55212 whole entry): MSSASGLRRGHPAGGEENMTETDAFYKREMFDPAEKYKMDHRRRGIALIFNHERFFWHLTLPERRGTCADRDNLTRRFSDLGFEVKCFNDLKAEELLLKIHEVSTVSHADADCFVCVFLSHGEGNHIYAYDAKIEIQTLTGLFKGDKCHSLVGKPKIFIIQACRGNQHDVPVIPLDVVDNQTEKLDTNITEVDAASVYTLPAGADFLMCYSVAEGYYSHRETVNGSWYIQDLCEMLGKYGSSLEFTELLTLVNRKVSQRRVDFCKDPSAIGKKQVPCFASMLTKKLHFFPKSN

[12] = ATP-based viability loss in HEK293T cells – cell-based, CellTiter-Glo luminescence, cherry-picked samples, set 4, cytotoxicity control, dose response (AID 743441); type: functional; settings: HEK293
[13] = biological target: Metabotropic glutamate receptor 3 (Rattus norvegicus, UniProt P31422); assay: inhibition of rat mGlu3 glutamate signaling – HEK/GIRK cells, thallium flux, dose response (AID 651839); type: functional
[14] = general mammalian cell viability loss – inhibitor set, cherry-pick, set 2, cytotoxicity control for miR-122 modulator project, dose response (AID 720697); type: functional, cell-based
[15] = viability of HCT116 lacking mutant beta-catenin – cell-based, human colon tumor, dose response (AID 1045); type: functional;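 note: HCT116 colon tumor cells with beta catenin knocked out; cells exposed to compound for 60 hours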
[16] = EF1alpha-driven Renilla reporter with control 3'UTR suppression – Clone20-Shn3RL cells, dual-Glo, cherry-pick, set 2, counter-screen for Shn3 3'UTR targeting project, dose response (AID 720724); type: functional, cell-based; settings: Dual-Go Shn3RL
[17] = loss of viability in HepG2 cells – cell-based, CellTiter-Glo, cherry-picked, cytotoxicity control for Shn3 inhibitor project, dose response (AID 624134); type: functional
[18] = Shn3 3'UTR reporter signal decrease – cell-based, Clone20 osteoblasts, firefly luciferase, cherry-pick, set 2, Schnurri-3 inhibitor project, dose response (AID 720490); type: functional;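 note: actives lower the luminescence signal as inhibitors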
[19] = reduction of Shn3 3'UTR-driven luciferase in osteoblasts – cell-based, Clone20 osteoblasts, firefly luciferase, cherry-picked, dose response (AID 624132); type: functional;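 note: firefly luciferase luminescence from reporter carrying the Shn3 3'UTR in osteoblasts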
INS1 = assay: INS-1E survival protection against cytokine death – cell-based, luminescence, retest, dose response (AID 449756); type: functional; settings: Rattus norvegicus;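 note: cell death triggered by IL-1 beta plus TNF-alpha plus IFN-gamma mixture; protective hits raise ATP signal compared with cytokine alone wells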
[20] = non-specific 3'UTR reporter inhibition in Clone20-Shn3RL – cell-based, Renilla luciferase, cherry-picked, counter-screen for Shn3 inhibitor project, dose response (AID 624133); type: functional
[21] = general mammalian cell viability loss – activator set, cherry-pick, cytotoxicity control for miR-122 modulator project, dose response (AID 720690); type: functional, cell-based;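 note: HEK293T human cells scored for general mammalian cytotoxicity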
[22] = biological target: T6, Ubiquitin-conjugating enzyme E2 N (Homo sapiens, UniProt P61088); type: functional;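 note: Dose-response confirmation in a TR-FRET assay detecting UBC13-driven polyubiquitin chain formation, inhibition measured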
T6 sequence (P61088 whole entry): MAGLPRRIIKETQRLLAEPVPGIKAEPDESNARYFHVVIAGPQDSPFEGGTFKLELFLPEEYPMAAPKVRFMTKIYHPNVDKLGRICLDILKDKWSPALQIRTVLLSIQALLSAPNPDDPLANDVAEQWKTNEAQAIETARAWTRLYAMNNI

[23] = viability of PTEN-deleted HCT116 cells – cell-based, HCT116 PTEN knockout, dose response (AID 1047); type: functional;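 note: HCT116 colon tumor cells with PTEN knocked out; cells exposed to compound for 60 hours before readout; potency for loss of cell viability measured by luminescence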

T1 sequence (Q61009 whole entry): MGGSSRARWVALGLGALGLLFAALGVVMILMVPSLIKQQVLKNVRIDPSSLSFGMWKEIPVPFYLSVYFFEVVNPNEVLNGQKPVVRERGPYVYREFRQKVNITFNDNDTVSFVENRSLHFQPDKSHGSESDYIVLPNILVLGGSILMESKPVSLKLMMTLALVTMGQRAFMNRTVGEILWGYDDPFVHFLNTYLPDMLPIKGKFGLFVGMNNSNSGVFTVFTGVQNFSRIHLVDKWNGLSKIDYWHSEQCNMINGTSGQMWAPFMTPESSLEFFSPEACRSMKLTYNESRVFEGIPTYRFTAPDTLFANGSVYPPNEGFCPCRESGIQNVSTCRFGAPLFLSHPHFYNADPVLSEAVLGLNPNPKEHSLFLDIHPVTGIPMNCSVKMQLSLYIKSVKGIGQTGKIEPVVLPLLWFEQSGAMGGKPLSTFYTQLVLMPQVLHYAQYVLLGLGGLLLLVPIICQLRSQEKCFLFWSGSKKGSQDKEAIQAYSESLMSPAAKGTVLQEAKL
Chain of 1-phosphatidylinositol 4,5-bisphosphate phosphodiesterase gamma-1 (P19174 whole entry): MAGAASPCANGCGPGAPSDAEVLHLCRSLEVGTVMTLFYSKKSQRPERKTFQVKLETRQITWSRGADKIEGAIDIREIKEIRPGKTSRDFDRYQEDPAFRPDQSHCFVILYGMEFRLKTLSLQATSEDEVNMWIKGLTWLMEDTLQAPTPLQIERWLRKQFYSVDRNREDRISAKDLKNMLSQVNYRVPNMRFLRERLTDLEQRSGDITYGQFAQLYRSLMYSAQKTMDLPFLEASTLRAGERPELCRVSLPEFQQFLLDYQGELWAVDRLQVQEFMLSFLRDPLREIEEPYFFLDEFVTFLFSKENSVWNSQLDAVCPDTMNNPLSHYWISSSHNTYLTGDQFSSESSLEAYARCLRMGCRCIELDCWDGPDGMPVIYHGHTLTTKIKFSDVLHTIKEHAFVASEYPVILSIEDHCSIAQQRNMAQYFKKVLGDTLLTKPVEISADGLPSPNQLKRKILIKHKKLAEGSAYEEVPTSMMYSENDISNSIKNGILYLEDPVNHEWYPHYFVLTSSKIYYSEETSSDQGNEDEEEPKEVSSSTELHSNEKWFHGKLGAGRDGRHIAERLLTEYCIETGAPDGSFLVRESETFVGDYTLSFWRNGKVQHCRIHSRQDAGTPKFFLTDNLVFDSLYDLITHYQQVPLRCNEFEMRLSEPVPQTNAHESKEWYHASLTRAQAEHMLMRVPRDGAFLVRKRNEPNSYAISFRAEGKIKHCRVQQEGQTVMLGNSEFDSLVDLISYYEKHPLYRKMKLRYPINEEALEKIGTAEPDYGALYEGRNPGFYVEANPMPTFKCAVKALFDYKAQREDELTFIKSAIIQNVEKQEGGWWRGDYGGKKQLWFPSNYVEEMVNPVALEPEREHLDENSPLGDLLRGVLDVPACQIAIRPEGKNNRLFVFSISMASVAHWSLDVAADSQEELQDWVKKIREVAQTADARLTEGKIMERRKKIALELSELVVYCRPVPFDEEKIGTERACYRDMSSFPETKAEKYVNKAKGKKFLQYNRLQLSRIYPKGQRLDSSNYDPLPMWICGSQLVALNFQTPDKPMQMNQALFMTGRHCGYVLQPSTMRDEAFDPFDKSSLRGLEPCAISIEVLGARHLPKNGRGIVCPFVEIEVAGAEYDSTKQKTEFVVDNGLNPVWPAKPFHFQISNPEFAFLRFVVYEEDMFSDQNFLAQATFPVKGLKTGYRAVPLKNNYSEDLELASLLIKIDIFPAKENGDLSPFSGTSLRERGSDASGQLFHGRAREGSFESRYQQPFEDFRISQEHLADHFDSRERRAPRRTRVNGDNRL
Chain of Disintegrin and metalloproteinase domain-containing protein 17 (P78536 whole entry, the tested form may be a part): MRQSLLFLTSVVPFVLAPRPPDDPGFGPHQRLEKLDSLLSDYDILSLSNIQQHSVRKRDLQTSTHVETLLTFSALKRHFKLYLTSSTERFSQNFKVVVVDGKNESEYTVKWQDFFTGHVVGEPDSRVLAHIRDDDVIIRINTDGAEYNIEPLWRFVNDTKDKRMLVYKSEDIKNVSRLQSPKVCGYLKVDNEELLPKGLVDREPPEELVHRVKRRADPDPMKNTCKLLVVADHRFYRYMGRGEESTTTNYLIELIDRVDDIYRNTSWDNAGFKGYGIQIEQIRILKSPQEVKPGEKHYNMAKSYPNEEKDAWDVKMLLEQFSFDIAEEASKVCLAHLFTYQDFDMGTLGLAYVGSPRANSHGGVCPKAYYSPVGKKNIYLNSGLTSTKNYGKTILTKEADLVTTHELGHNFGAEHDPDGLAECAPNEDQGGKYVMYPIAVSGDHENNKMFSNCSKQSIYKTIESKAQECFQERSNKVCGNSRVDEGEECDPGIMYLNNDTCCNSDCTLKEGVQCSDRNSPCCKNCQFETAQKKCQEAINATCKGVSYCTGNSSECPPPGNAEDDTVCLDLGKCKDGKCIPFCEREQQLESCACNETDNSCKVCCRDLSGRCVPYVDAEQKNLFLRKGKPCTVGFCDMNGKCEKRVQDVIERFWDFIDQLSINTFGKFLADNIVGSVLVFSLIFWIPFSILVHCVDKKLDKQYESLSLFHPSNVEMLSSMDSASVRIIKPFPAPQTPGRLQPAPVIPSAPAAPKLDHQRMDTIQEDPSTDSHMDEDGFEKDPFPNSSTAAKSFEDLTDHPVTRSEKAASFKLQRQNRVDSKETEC
Chain of Nonstructural protein 1 (Q194T2 whole entry): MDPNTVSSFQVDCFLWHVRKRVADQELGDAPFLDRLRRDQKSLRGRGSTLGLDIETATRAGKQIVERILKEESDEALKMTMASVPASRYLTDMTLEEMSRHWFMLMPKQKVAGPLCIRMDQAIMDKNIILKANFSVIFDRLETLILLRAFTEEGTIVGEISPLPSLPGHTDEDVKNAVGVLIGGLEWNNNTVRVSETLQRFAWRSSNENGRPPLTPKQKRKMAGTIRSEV
Chain of Metabotropic glutamate receptor 3 (P31422 whole entry): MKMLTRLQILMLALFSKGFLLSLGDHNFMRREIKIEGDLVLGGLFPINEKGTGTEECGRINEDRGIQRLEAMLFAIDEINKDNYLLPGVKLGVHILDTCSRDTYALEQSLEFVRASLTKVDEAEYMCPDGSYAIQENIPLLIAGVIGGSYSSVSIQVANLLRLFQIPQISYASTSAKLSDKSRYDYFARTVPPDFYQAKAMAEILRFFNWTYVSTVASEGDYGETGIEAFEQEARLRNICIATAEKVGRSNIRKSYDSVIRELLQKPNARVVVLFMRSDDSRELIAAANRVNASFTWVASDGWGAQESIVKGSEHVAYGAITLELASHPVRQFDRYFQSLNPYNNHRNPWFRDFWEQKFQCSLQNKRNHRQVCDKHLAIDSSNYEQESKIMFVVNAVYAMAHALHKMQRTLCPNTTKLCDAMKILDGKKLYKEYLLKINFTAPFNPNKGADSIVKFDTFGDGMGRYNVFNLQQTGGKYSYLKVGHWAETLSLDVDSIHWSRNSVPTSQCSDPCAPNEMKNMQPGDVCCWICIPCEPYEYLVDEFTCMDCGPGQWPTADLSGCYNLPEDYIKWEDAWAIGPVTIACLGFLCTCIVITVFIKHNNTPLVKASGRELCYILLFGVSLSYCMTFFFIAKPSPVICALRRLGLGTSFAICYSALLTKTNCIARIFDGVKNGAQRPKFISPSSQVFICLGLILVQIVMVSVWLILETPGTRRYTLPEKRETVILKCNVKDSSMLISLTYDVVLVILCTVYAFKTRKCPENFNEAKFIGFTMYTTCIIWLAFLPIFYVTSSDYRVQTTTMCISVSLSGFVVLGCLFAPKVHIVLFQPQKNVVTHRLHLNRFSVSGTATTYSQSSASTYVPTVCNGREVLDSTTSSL
Chain of 1-phosphatidylinositol 4,5-bisphosphate phosphodiesterase beta-3 (Q01970 whole entry): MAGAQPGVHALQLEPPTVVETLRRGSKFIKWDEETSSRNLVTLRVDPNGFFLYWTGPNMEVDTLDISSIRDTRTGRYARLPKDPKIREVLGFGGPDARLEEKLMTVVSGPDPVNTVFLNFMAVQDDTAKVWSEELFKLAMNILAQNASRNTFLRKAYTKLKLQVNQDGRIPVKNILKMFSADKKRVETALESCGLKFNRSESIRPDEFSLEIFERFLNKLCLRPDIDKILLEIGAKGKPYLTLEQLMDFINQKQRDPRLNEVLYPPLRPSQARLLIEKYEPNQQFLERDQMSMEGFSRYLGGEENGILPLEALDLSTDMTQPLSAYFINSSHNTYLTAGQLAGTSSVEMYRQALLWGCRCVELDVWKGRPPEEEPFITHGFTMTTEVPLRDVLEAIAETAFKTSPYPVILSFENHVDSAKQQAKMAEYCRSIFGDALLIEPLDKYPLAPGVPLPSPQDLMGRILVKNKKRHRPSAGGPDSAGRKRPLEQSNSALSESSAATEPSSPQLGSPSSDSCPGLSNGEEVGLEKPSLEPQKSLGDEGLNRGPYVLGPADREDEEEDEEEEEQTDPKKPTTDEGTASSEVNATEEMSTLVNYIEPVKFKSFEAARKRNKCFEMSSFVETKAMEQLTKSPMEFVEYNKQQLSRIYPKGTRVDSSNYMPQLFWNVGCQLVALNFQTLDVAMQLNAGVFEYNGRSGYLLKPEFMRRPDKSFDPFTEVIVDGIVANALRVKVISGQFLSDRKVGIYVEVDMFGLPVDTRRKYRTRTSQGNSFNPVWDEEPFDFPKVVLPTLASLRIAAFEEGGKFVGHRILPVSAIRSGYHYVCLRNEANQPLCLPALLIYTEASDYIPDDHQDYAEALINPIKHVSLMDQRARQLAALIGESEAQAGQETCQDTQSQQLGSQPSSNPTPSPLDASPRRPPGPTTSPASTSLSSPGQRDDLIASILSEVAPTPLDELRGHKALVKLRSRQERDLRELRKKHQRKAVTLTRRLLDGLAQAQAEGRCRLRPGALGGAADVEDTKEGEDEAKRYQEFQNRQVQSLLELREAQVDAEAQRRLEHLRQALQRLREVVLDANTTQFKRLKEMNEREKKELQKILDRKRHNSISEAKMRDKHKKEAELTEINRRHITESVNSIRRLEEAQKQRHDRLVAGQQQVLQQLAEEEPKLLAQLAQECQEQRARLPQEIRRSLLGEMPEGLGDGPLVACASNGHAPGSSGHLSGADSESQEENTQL

## Cc1ccc(/C=C(\CC(=O)O)c2nc3ccccc3s2)cc1[N+](=O)[O-]
[1]
  AC50: 14.3 µM (active)

## Cc1c(C(=O)NCc2ccc(Cl)c(Cl)c2)sc(=O)n1Cc1cccc(F)c1
cells
  AC50: > 52 µM (inactive)

## CN1C(=O)c2cc(NC(=O)Nc3ccccc3F)ccc2OC[C@H]2O[C@@H](CC(=O)NCc3ccc(-c4ccccc4)cc3)CC[C@@H]21
[2]
  IC50: > 69.5 µM (inactive)
[3]
  IC50: > 122 µM (inactive)
[4]
  IC50: > 69.5 µM (inactive)
[5]
  IC50: > 122 µM (inactive)

## O=C(O)CC(C(=O)Nc1cccc(C(F)(F)F)c1)C1CCCO1 (centres undefined)
[6]
  AC50: 45.4 µM (active)
[7]
  AC50: 34.3 µM (active)

## O=S(=O)(O)c1cc(O)c(N=Nc2ccc(O)cc2O)c2ccccc12
ORF 73
  AC50: 22.2 µM (active)
[8]
  IC50: 20.5 µM (inactive)
[9]
  AC50: 7.35 µM (active)
HeLa
  AC50: 32.4 µM (active)
[10]
  CC50: 100 µM (active)
Nonstructural protein 1
  IC50: 4.32 µM (active)
[11]
  IC50: 28.8 µM (active)
Caspase-6
  AC50: 2.16 µM (active)

## CCOc1ccccc1NC(=O)c1ccc2ccccc2c1
[12]
  AC50: > 52 µM (inactive)

## O=C(c1ccc(C#Cc2ccc3c(c2)OCO3)cc1)N1CCCC(CO)C1 (centres undefined)
[13]
  IC50: 7.26 µM (active)

## CCCCNc1cc(C)nc(NCc2ccccc2)n1
[14]
  AC50: 7.51 µM (active)
[15]
  EC50: 3.96 µM (active)
[16]
  AC50: 31.1 µM (active)
[17]
  AC50: 13.8 µM (active)
[18]
  AC50: 1.19 µM (active)
[19]
  AC50: 0.719 µM (active)
INS1
  AC50: 2.49 µM (active)
[20]
  AC50: 3.36 µM (active)
[21]
  AC50: 10.6 µM (active)
[22]
  IC50: > 20 µM (inactive)
[23]
  EC50: 4.04 µM (active)
